Tested on: anti-topiramate antibodies prepared with immunogen (18)
Assay: ELISA binding inhibition study (avidity), free topiramate vs coated antigens
Parameters: species or system Rabbit
Details: for Abs Antigen 16 / Abs Antigen 19 / Abs Antigen 20: 405 nm
Procedure: ELISA plates for use in an ELISA assay are prepared in order to study the polyclonal antibody prepared as described in Example 21. As such, various topiramate antigens (16), (19), and (20) are coated on different ELISA plates before being subjected to the anti-topiramate antibody and competing free topiramate. More particularly, the topiramate antigens are diluted in coating buffer, and then added to the wells of ELISA plate. After the ELISA plate is inculcated for 60 min at 37° C., the solvent in the coating buffer is decanted and a blocking buffer is added to the plate. The plate is incubated again for 60 min at 37° C., and the solvent in the blocking buffer is decanted from the plate. The ELISA plate is then stored with the blocking agent in the wells at 2-8° C. for up to 1 week. The avidity of the anti-topiramate antibodies prepared with immunogen (17) for topirainate analogs are determined by a binding inhibition study. As such, samples are prepared in 1 mL of PBS at pH 7.4 with 0.1% BSA. A composition having 30% Bmax titer or 50% Bmax titer is used to divide the obtained titer value into approximately half the titer value. Using 30% Bmax, an antibody titer of 1:10000 is diluted to 1:5000 during the sample preparation stage. About 50 μL of topiramate at different concentrations or calibrator values, (0, 2, 4, 8, 16, 32 μg/ml) are then applied to a plate as prepared in accordance with Example 22. About 50 μL of the diluted antibody is dispensed into the plate, and the compositions in the plate are mixed for 1 min on a horizontal plate shaker. The plate is characterized by a first row not containing topiramate or anti-topiramate antibody, wherein the first row is used as a negative control. A second row not containing topiramate is used as the positive control. The plate is incubated for 60 min, and washed three times with 250 μL of PBS at pH 7.4 with 0.05% tween. About 125 μL of a diluted second antibody conjugate such as antigens (16), (19), or (20), in PBS at pH 7.4 is added to each well of the plate. Titer is determined experimentally by the plate being incubated for 60 min at 37° C. and washed 3 times with 250 μL PBS, pH 7.4 with 0.05% tween. Subsequently, about 125 μL of ABTS substrate is added to each well of the plate and incubated for 20 min. The avidity of the anti-topiramate antibodies prepared with immunogen (18) for topiramate analogs is determined by a binding inhibition study performed with an experimental protocol substantially similar as in Example 24.

[1] = Rabbit No. 5490, topiramate 2 μg/ml
[2] = Rabbit No. 5490, topiramate 4 μg/ml
[3] = Rabbit No. 5490, topiramate 8 μg/ml
[4] = Rabbit No. 5490, topiramate 16 μg/ml
[5] = Rabbit No. 5490, topiramate 32 μg/ml
[6] = Rabbit No. 5495, topiramate 2 μg/ml
[7] = Rabbit No. 5495, topiramate 4 μg/ml
[8] = Rabbit No. 5495, topiramate 8 μg/ml
[9] = Rabbit No. 5495, topiramate 16 μg/ml
[10] = Rabbit No. 5495, topiramate 32 μg/ml

B/Bo Antigen 16 [1]: 0.35
B/Bo Antigen 19 [1]: 0.18
B/Bo Antigen 20 [1]: 0.63
Abs Antigen 16 [1]: 0.25
Abs Antigen 19 [1]: 0.10
Abs Antigen 20 [1]: 0.25
B/Bo Antigen 16 [2]: 0.28
B/Bo Antigen 19 [2]: 0.10
B/Bo Antigen 20 [2]: 0.60
Abs Antigen 16 [2]: 0.20
Abs Antigen 19 [2]: 0.06
Abs Antigen 20 [2]: 0.24
B/Bo Antigen 16 [3]: 0.21
B/Bo Antigen 19 [3]: 0.07
B/Bo Antigen 20 [3]: 0.55
Abs Antigen 16 [3]: 0.15
Abs Antigen 19 [3]: 0.04
Abs Antigen 20 [3]: 0.22
B/Bo Antigen 16 [4]: 0.17
B/Bo Antigen 19 [4]: 0.06
B/Bo Antigen 20 [4]: 0.53
Abs Antigen 16 [4]: 0.12
Abs Antigen 19 [4]: 0.03
Abs Antigen 20 [4]: 0.21
B/Bo Antigen 16 [5]: 0.14
B/Bo Antigen 19 [5]: 0.04
B/Bo Antigen 20 [5]: 0.50
Abs Antigen 16 [5]: 0.10
Abs Antigen 19 [5]: 0.02
Abs Antigen 20 [5]: 0.20
B/Bo Antigen 16 [6]: 0.35
B/Bo Antigen 19 [6]: 0.20
B/Bo Antigen 20 [6]: 0.53
Abs Antigen 16 [6]: 0.25
Abs Antigen 19 [6]: 0.13
Abs Antigen 20 [6]: 0.18
B/Bo Antigen 16 [7]: 0.39
B/Bo Antigen 19 [7]: 0.12
B/Bo Antigen 20 [7]: 0.50
Abs Antigen 16 [7]: 0.28
Abs Antigen 19 [7]: 0.08
Abs Antigen 20 [7]: 0.17
B/Bo Antigen 16 [8]: 0.21
B/Bo Antigen 19 [8]: 0.08
B/Bo Antigen 20 [8]: 0.47
Abs Antigen 16 [8]: 0.15
Abs Antigen 19 [8]: 0.05
Abs Antigen 20 [8]: 0.16
B/Bo Antigen 16 [9]: 0.17
B/Bo Antigen 19 [9]: 0.06
B/Bo Antigen 20 [9]: 0.41
Abs Antigen 16 [9]: 0.12
Abs Antigen 19 [9]: 0.04
Abs Antigen 20 [9]: 0.14
B/Bo Antigen 16 [10]: 0.14
B/Bo Antigen 19 [10]: 0.03
B/Bo Antigen 20 [10]: 0.32
Abs Antigen 16 [10]: 0.10
Abs Antigen 19 [10]: 0.02
Abs Antigen 20 [10]: 0.11
Structure (SMILES): CC1(C)O[C@@H]2[C@@H](CO[C@@]3(COS(N)(=O)=O)OC(C)(C)O[C@@H]23)O1 [Topiramate, 2,3:4,5-di-O-isopropylidene-beta-D-fructopyranose sulfamate]

— patent US20060088886A1, “Topiramate analogs” (priority 2004, published 2006)
